Results: ChEMBL document CHEMBL2311376, “Synthesis and antibacterial evaluation of a novel tricyclic oxaborole-fused fluoroquinolone” (2013)
Values after ≈ are worked out from the molar mass of the structure shown.

Columns and labels:
Type in all cases: functional
Escherichia coli [1] = experiment: Antimicrobial activity against Escherichia coli K-12 containing delta-lacU169 tolC::Tn10 mutant by microbroth dilution assay
Staphylococcus aureus = experiment: Antimicrobial activity against Staphylococcus aureus ATCC 29213 by microbroth dilution assay
Escherichia coli [2] = experiment: Antimicrobial activity against Escherichia coli K-12 containing delta-lacU169 tolC::Tn10 gyrA D87Y mutant by microbroth dilution assay
Escherichia coli [3] = experiment: Antimicrobial activity against Escherichia coli K-12 containing delta-lacU169 mutant by microbroth dilution assay
Escherichia coli [4] = experiment: Antimicrobial activity against Escherichia coli K-12 containing delta-lacU169 tolC::Tn10 gyrA S83L mutant by microbroth dilution assay

SMILES	MIC (Escherichia coli [1])	MIC (Staphylococcus aureus)	MIC (Escherichia coli [2])	MIC (Escherichia coli [3])	MIC (Escherichia coli [4])
O=c1c2c(n(C3CC3)c3cc(N4CCNCC4)c(F)cc13)COB2O	16 µg/mL (≈ 46.6 µM)	128 µg/mL (≈ 373 µM)	32 µg/mL (≈ 93.2 µM)	128 µg/mL (≈ 373 µM)	64 µg/mL (≈ 186 µM)
CC(C)(C)OC(=O)N1CCN(c2cc3c(cc2F)c(=O)c2c(n3C3CC3)COB2O)CC1	> 256 µg/mL	> 256 µg/mL	> 256 µg/mL	> 256 µg/mL	> 256 µg/mL
O=c1c(Br)c(CO)n(C2CC2)c2cc(N3CCNCC3)c(F)cc12	128 µg/mL (≈ 323 µM)	> 256 µg/mL	> 256 µg/mL	> 256 µg/mL	256 µg/mL (≈ 646 µM)
O=c1cc(CO)n(C2CC2)c2cc(N3CCNCC3)c(F)cc12	> 256 µg/mL	> 256 µg/mL	> 256 µg/mL	> 256 µg/mL	> 256 µg/mL
